How the values were obtained:
Assay in all cases: Cancer cell growth inhibition assay (MTT)
Format in all cases: cell-based, human
[1] = tested on: H226 non-small-cell lung; details: Homo sapiens, NCI-H226
[2] = tested on: HT-29 colon; details: Homo sapiens, HT-29
[3] = tested on: MDA-231 breast; details: Homo sapiens, MDA-MB-231
[4] = tested on: Raji lymphoma; details: Homo sapiens, Raji

IC50 [1]: 90 ± 3 nM
IC50 [2]: 160 ± 10 nM
IC50 [3]: 160 ± 20 nM
IC50 [4]: 50 ± 6 nM
Structure (SMILES): N[C@H]1CCN(c2c(F)cc3c(=O)c(C(=O)O)cn4c3c2Oc2ccccc2-4)C1 [Compound A-62176, 1-(3-aminopyrrolidin-1-yl)-2-fluoro-4-oxo-4H-quino[2,3,4-i,j][1,4]benzoxazine-5-carboxylic acid, reference compound]
